From ChEMBL document CHEMBL5154874, “Discovery of novel dual RAGE/SERT inhibitors for the potential treatment of the comorbidity of Alzheimer's disease and depression” (Eur J Med Chem, 2022)
pIC50: −log10 of the molar value. Activity calls are given as the source filed them. The rule behind the calls is not given here.

Key:
SH-SY5Y [1] = experiment: Cytotoxicity against human SH-SY5Y cells assessed as cell death at 5 uM incubated for 24 hrs by MTT assay; format: toxicity, cell-based
SH-SY5Y [2] = experiment: Cytotoxicity against human SH-SY5Y cells assessed as reduction in cell viability at 10 to 20 uM incubated for 24 hrs by MTT assay; format: toxicity, cell-based; conditions: dose 10-20 µM
[3] = molecular target: Advanced glycosylation end product-specific receptor (Homo sapiens, UniProt Q15109); experiment: Inhibition of biotinylated human RAGE/amyloid beta interaction incubated for 120 mins by ELISA assay
Sequence of Advanced glycosylation end product-specific receptor (Q15109 whole entry): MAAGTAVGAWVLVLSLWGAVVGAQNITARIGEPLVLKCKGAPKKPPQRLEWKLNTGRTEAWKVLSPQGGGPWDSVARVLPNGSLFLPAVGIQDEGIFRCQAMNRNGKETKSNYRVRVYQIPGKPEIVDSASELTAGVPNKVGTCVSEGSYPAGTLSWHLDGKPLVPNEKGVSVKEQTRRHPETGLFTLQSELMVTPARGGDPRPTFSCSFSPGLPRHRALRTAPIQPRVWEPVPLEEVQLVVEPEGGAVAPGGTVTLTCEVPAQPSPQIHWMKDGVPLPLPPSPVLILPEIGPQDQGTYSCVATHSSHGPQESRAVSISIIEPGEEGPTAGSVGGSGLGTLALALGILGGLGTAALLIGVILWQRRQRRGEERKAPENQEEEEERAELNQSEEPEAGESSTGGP

[4] = Metabolic stability in mouse liver microsomes assessed as parent compound remaining in presence of NADPH and measured after 60 mins by LC-MS/MS analysis
[5] = molecular target: Sodium-dependent serotonin transporter (Homo sapiens, UniProt P31645)
Sequence of Sodium-dependent serotonin transporter (P31645 whole entry): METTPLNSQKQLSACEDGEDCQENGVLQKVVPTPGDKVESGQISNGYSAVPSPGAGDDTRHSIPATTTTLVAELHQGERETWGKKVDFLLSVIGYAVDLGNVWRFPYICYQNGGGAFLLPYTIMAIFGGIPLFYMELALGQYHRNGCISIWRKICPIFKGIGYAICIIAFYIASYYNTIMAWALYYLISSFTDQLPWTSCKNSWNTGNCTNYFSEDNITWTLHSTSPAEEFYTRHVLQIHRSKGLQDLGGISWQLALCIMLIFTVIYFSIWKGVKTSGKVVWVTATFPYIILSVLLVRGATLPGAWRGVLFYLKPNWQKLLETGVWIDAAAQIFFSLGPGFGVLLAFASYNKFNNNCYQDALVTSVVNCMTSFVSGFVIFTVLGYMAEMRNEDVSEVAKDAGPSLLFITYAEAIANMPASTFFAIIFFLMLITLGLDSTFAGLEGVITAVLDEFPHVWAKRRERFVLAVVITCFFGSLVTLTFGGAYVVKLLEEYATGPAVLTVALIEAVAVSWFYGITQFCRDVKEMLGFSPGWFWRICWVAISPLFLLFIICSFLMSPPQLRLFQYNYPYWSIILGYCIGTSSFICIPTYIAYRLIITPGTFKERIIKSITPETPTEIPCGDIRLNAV

[6] = Cytotoxicity against human SH-SY5Y cells assessed as cell viability at 5 uM incubated for 24 hrs by MTT assay relative to control; format: toxicity, cell-based; conditions: read-out: Activity
CYP2C19 = CYP2C19 (Homo sapiens, UniProt P33261); experiment: Inhibition of CYP2C19 in human liver microsomes at 10 uM incubated for 10 mins in presence of NADPH by LC-MS/MS analysis relative to control; format: ADME, Microsome
Sequence of CYP2C19 (P33261 whole entry): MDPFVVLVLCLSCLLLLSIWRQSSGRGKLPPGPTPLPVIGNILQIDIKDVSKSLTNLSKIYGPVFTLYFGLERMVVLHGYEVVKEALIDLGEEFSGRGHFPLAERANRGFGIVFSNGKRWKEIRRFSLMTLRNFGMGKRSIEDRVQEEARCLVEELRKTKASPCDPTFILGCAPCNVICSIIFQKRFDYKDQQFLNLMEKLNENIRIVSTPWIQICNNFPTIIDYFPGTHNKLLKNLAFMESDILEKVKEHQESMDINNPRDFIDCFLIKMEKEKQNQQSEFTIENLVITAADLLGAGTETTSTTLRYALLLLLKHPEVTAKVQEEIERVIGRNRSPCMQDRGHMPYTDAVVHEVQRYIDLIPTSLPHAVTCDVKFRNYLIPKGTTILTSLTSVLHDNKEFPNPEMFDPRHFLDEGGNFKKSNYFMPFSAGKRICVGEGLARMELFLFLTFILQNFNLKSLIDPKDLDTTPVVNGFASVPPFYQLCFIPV

[7] = molecular target: Voltage-gated inwardly rectifying potassium channel KCNH2 (Homo sapiens, UniProt Q12809); experiment: Inhibition of hERG transfected in CHO cells by manual patch-clamp assay; format: toxicity, cell-based
Sequence of Voltage-gated inwardly rectifying potassium channel KCNH2 (Q12809 whole entry): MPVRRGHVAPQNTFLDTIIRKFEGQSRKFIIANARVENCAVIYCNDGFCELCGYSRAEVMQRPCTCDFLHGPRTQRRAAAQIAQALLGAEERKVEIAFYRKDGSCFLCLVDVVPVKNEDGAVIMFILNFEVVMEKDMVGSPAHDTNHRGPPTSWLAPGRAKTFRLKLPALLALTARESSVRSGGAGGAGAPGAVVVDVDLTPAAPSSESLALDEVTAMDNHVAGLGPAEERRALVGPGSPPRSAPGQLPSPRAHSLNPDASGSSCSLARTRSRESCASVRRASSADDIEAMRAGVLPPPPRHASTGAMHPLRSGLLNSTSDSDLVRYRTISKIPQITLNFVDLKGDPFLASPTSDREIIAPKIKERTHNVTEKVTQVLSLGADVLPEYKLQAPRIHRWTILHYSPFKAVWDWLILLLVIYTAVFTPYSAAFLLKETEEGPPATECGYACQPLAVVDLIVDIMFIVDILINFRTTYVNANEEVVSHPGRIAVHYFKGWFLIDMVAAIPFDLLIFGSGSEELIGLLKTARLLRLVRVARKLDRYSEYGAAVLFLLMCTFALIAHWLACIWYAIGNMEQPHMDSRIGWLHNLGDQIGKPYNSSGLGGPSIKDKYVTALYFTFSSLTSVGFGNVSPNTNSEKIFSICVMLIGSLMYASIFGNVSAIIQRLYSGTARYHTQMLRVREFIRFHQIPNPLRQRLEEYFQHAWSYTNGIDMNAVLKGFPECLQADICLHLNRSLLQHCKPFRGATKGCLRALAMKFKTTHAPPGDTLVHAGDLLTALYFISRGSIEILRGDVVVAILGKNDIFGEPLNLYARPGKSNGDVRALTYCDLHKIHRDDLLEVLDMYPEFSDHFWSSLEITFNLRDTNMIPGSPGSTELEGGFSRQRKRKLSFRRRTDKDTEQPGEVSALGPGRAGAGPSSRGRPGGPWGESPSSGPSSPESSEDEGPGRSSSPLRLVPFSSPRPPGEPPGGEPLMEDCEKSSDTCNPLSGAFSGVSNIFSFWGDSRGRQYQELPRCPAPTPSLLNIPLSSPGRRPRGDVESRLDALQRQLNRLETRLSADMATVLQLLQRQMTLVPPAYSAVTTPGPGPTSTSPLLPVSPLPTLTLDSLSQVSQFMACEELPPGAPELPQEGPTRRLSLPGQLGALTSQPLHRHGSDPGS

[8] = Metabolic stability in mouse liver microsomes assessed as clearance at 100 uM in presence of NADPH and measured for 5 to 60 mins by LC-MS/MS analysis; format: ADME, Microsome; conditions: time 5-60 min, read-out: CLH
CYP3A4 = CYP3A4 (Homo sapiens, UniProt P08684); experiment: Inhibition of CYP3A4 in human liver microsomes at 10 uM incubated for 10 mins in presence of NADPH by LC-MS/MS analysis relative to control; format: ADME, Microsome
Sequence of CYP3A4 (P08684 whole entry): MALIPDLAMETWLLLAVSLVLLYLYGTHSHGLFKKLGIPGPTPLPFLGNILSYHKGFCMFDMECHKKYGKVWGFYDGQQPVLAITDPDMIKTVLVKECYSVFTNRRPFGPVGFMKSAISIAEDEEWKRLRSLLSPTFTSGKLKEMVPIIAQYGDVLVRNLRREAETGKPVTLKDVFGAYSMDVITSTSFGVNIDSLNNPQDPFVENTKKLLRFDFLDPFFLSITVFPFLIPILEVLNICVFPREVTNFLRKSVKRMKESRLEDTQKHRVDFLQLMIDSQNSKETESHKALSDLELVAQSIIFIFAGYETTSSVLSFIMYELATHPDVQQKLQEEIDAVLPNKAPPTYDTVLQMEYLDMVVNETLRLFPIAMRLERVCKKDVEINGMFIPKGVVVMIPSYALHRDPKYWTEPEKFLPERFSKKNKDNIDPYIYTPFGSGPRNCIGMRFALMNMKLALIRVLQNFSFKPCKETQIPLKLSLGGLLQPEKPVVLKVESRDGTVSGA

CYP1A2 = molecular target: T1, CYP1A2 (Homo sapiens, UniProt P05177); experiment: Inhibition of CYP1A2 in human liver microsomes at 10 uM incubated for 10 mins in presence of NADPH by LC-MS/MS analysis relative to control; format: ADME, Microsome
T1 sequence (P05177 whole entry): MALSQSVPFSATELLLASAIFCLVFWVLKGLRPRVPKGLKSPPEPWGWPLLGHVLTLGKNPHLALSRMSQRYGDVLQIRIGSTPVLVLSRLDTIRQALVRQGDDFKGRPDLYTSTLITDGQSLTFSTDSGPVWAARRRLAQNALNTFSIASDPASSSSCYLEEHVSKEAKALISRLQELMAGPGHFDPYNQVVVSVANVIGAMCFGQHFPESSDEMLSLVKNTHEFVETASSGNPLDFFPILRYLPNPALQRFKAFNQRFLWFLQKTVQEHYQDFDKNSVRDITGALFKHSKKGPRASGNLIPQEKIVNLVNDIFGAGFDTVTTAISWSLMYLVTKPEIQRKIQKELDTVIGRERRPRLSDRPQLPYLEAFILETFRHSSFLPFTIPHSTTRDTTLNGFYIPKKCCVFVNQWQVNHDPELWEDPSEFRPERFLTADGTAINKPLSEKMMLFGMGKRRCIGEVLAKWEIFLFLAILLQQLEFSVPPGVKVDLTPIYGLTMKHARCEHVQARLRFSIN

[9] = Metabolic stability in mouse liver microsomes assessed as half life at 100 uM in presence of NADPH and measured for 5 to 60 mins by LC-MS/MS analysis; format: ADME, Microsome; conditions: time 5-60 min
CYP2C9 = CYP2C9 (Homo sapiens, UniProt P11712); experiment: Inhibition of CYP2C9 in human liver microsomes at 10 uM incubated for 10 mins in presence of NADPH by LC-MS/MS analysis relative to control; format: ADME, Microsome
Sequence of CYP2C9 (P11712 whole entry): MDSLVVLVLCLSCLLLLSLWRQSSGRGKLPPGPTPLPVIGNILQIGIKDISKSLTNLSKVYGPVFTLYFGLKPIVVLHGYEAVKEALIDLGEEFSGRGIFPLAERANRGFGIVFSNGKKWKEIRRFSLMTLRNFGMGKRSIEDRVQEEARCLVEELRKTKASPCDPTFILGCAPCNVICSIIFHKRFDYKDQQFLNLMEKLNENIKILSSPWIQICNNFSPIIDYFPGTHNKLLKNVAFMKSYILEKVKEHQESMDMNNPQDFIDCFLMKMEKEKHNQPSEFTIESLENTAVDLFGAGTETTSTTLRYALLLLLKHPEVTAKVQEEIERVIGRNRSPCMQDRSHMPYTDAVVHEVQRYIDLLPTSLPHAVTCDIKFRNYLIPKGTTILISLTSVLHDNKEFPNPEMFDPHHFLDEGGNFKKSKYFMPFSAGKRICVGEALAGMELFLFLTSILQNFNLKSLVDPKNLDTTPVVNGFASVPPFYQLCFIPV

[10] = Half life in mouse at 60 mg/kg, po measured for 0.25 to 24 hrs; format: ADME, organism-based; conditions: in vivo, time 0.25-24 hrs
[11] = AUC (0 to infinity) in mouse at 10 mg/kg, iv measured for 0.083 to 24 hrs; format: ADME, organism-based; design: dose 10 mg/kg, time 0.083-24 hrs, route iv; conditions: in vivo
[12] = Toxicity in ICR mouse assessed as change in heart to body weight ratio at 100 mg/kg, ip administered as single dose and measured after 2 weeks; format: organism-based; conditions: in vivo, 336 h
[13] = Toxicity in ICR mouse assessed as animal survival at 200 mg/kg, ip administered as single dose measured upto 2 weeks; format: organism-based; conditions: in vivo, 336 h
[14] = Toxicity in ICR mouse assessed as change in lungs to body weight ratio at 100 mg/kg, ip administered as single dose and measured after 2 weeks; format: organism-based; conditions: in vivo, 336 h
[15] = Cytotoxicity against human SH-SY5Y cells assessed as cell viability at 20 uM incubated for 24 hrs by MTT assay relative to control; format: toxicity, cell-based; conditions: read-out: Activity
[16] = Toxicity in ICR mouse assessed as change in spleen to body weight ratio at 100 mg/kg, ip administered as single dose and measured after 2 weeks; format: organism-based; conditions: in vivo, 336 h
[17] = Toxicity in ICR mouse assessed as change in brain to body weight ratio at 100 mg/kg, ip administered as single dose and measured after 2 weeks; format: organism-based; conditions: in vivo, 336 h
[18] = Oral bioavailability in mouse at 60 mg/kg measured for 0.25 to 24 hrs; format: ADME, organism-based; conditions: in vivo, time 0.25-24 hrs
[19] = Toxicity in ICR mouse assessed as change in liver to body weight ratio at 100 mg/kg, ip administered as single dose and measured after 2 weeks; format: organism-based; conditions: in vivo, 336 h
[20] = Clearance in mouse at 10 mg/kg, iv measured for 0.083 to 24 hrs; format: ADME, organism-based; conditions: in vivo, time 0.083-24 hrs
SH-SY5Y [21] = experiment: Cytotoxicity against human SH-SY5Y cells assessed as effect on cell viability at 1 to 10 uM incubated for 24 hrs by MTT assay; format: toxicity, cell-based; conditions: dose 1-10 µM
[22] = Toxicity in ICR mouse assessed as animal survival at 100 mg/kg, ip administered as single dose measured upto 2 weeks; format: organism-based; conditions: in vivo
[23] = Cmax in mouse at 10 mg/kg, iv measured for 0.083 to 24 hrs; format: ADME, organism-based; design: time lower 0.083 hrs, dose 10 mg/kg, time upper 24 hrs, route iv; conditions: in vivo
[24] = AUC (0 to infinity) in mouse at 60 mg/kg, po measured for 0.25 to 24 hrs; format: ADME, organism-based; design: time lower 0.25 hrs, dose 60 mg/kg, time upper 24 hrs, route po; conditions: in vivo
[25] = Cmax in mouse at 60 mg/kg, po measured for 0.25 to 24 hrs; format: ADME, organism-based; design: time 0.25-24 hrs, dose 60 mg/kg, route po; conditions: in vivo
[26] = Half life in mouse at 10 mg/kg, iv measured for 0.083 to 24 hrs; format: ADME, organism-based; conditions: in vivo, time 0.083-24 hrs
Mus musculus [27] = experiment: Anti-depressant activity in ICR mouse assessed as reduction in immobility time at 60 mg/kg, po measured after 1 hr post treatment by tail suspension test; format: functional, organism-based
[28] = Toxicity in ICR mouse assessed as change in kidney to body weight ratio at 100 mg/kg, ip administered as single dose and measured after 2 weeks; format: organism-based; conditions: in vivo, 336 h
[29] = Volume of distribution at steady state in mouse at 10 mg/kg, iv measured for 0.083 to 24 hrs; format: ADME, organism-based; conditions: in vivo, time 0.083-24 hrs, read-out: Vdss
Mus musculus [30] = experiment: Anti-depressant activity in ICR mouse assessed as reduction in immobility time at 30 mg/kg, po measured after 1 hr post treatment by tail suspension test; format: functional, organism-based

## CCCCc1nc(C2CCN(Cc3c[nH]c4ccc(C#N)cc34)CC2)cn1-c1ccc(Oc2ccc(Cl)cc2)cc1
SH-SY5Y [1]
  Activity: Toxic
SH-SY5Y [2]
  Activity: Toxic

## CCN(CC)CCOc1cccc(Nc2nc(-c3ccc(Cl)cc3)cc(-c3ccc(Cl)cc3)n2)c1
[3]
  pIC50: 4.98

## N#Cc1ccc2[nH]cc(CCCCN3CCC(c4cn(-c5ccc(Oc6ccc(Cl)cc6)cc5)c(C5CCC5)n4)CC3)c2c1
SH-SY5Y [1]
  Activity: Toxic
SH-SY5Y [2]
  Activity: Toxic

## C[C@]12CC[C@H]3[C@@H](CCC4=CC(=O)CC[C@@]43C)[C@@H]1CC[C@@H]2O [TESTOSTERONE]
[4]
  remaining at 1 h: 2.2%

## CCCc1nc(C2CCN(CCCCc3c[nH]c4ccc(C#N)cc34)CC2)cn1-c1ccc(Oc2ccc(Cl)cc2)cc1
SH-SY5Y [1]
  Activity: Toxic
SH-SY5Y [2]
  Activity: Toxic

## CCc1nc(C2CCN(CCCCc3c[nH]c4ccc(C#N)cc34)CC2)cn1-c1ccc(Oc2ccc(Cl)cc2)cc1
SH-SY5Y [1]
  Activity: Toxic
SH-SY5Y [2]
  Activity: Toxic

## CCCCc1sc(C2CCN(CCc3c[nH]c4ccc(C#N)cc34)CC2)nc1-c1ccc(Oc2ccc(Cl)cc2)cc1
[5]
  pIC50: < 7.00
[3]
  pIC50: < 4.70

## CCCCc1nc(C2CCN(CCCCc3c[nH]c4ccc(C#N)cc34)CC2)cn1-c1ccc(Oc2ccc(Cl)cc2)cc1
SH-SY5Y [1]
  Activity: Toxic
SH-SY5Y [2]
  Activity: Toxic
[6]
  viability at 24 h, 5 µM: 4.82%

## CCCCc1nc(-c2ccc(OCCCN(CC)CC)cc2)cn1-c1ccc(Oc2ccc(Cl)cc2)cc1 [AZELIRAGON]
CYP2C19
  inhibition at 10 min, 10 µM: 7.9%
SH-SY5Y [1]
  Activity: Toxic
[5]
  pIC50: < 5.52
[7]
  pIC50: > 6.00
[8]
  microsomal CLint at 100 µM: 14.9 µL/min/mg
CYP3A4
  inhibition at 10 min, 10 µM: 0%
CYP1A2
  inhibition at 10 min, 10 µM: 0%
[9]
  half-life at 100 µM: 1.55 h
CYP2C9
  inhibition at 10 min, 10 µM: 3.7%

## CCCCc1sc(C2CCN(CCCCc3cn(C)c4ccc(C#N)cc34)CC2)nc1-c1ccc(Oc2ccc(Cl)cc2)cc1
[10]
  half-life: 5.55 h
CYP2C19
  inhibition at 10 min, 10 µM: 23.7%
[11]
  AUC(0-inf): 23700 ng·h/mL
[7]
  pIC50: 5.14
[8]
  microsomal CLint at 100 µM: 17.6 µL/min/mg
CYP3A4
  inhibition at 10 min, 10 µM: 16.3%
[12]
  Activity: Non-Toxic
[13]
  Activity: Toxic
[14]
  Activity: Non-Toxic
[15]
  viability at 24 h, 20 µM: > 80%
[16]
  Activity: Non-Toxic
[17]
  Activity: Non-Toxic
[18]
  bioavailability: 17.1%
[19]
  Activity: Non-Toxic
[20]
  clearance: 7.09 mL/min/kg
CYP1A2
  inhibition at 10 min, 10 µM: 17.2%
[9]
  half-life at 100 µM: 1.31 h
SH-SY5Y [21]
  Activity: Non-Toxic
[22]
  survival at 336 h: 100%
CYP2C9
  inhibition at 10 min, 10 µM: 8.6%
[23]
  Cmax: 51700 ng/mL
[24]
  AUC(0-inf): 24700 ng·h/mL
[25]
  Cmax: 4940 ng/mL
[26]
  half-life: 3.46 h
Mus musculus [27]
  Activity: Active
[28]
  Activity: Non-Toxic
[29]
  Vd: 1.04 L/kg

## CCCCc1sc(C2CCN(CCCCc3c[nH]c4ccc(C#N)cc34)CC2)nc1-c1ccc(Oc2ccc(Cl)cc2)cc1
SH-SY5Y [1]
  Activity: Non-Toxic
SH-SY5Y [2]
  Activity: Toxic

## N#Cc1ccc2[nH]cc(CCCCN3CCN(c4ccc5oc(C(N)=O)cc5c4)CC3)c2c1 [VILAZODONE]
CYP2C19
  inhibition at 10 min, 10 µM: 51.3%
[8]
  microsomal CLint at 100 µM: 49.3 µL/min/mg
CYP3A4
  inhibition at 10 min, 10 µM: 29%
[3]
  pIC50: < 3.70
CYP1A2
  inhibition at 10 min, 10 µM: 14.4%
[9]
  half-life at 100 µM: 0.468 h
Mus musculus [30]
  Activity: Active
CYP2C9
  inhibition at 10 min, 10 µM: 49.2%

## CCCCCc1nc(C2CCN(CCCCc3cn(C)c4ccc(C#N)cc34)CC2)cn1-c1ccc(Oc2ccc(Cl)cc2)cc1
SH-SY5Y [1]
  Activity: Toxic
SH-SY5Y [2]
  Activity: Toxic

## CCCCc1nc(C2CCN(CCc3c[nH]c4ccc(C#N)cc34)CC2)cn1-c1ccc(Oc2ccc(Cl)cc2)cc1
[5]
  pIC50: < 7.00
[3]
  pIC50: < 4.70
